Columns and labels:
[1] = molecular target: human calcitonin receptor (CTR) and RAMP3 (AMY3) (Homo sapiens, UniProt O60896+P30988); experiment: Amylin Receptor cAMP Assay II; assay type: cell-based; conditions: COS-7/AMY3 cells, cAMP dynamic 2 kit, read-out: Amylin Receptor cAMP Stimulation Activity: EC50
Summary of the method: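 COS-7 cells stably co-expressing human CTR and RAMP3 (AMY3) were treated with 4-fold serially diluted compounds at 2000 cells/well in HBSS with 20 mM HEPES, 0.5 mM IBMX and 0.1% casein for 30 min at 37 °C. cAMP was measured by HTRF (cAMP-d2 plus anti-cAMP cryptate, 1 h at RT) with reads at 665/615 nm.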

[2] = molecular target: T1, human calcitonin receptor (CTR) (Homo sapiens, UniProt P30988); experiment: Calcitonin receptor (CTR) cAMP Assay; assay type: cell-based; conditions: COS7-human CTR Clone #2 cells, cAMP dynamic 2 kit; read-out: Calcitonin Receptor cAMP Stimulation Activity: EC50
T1 construct: expressed in transfected cells; host or cells: COS-7 (COS7-human CTR Clone #2)
T1 sequence (P30988 25-474): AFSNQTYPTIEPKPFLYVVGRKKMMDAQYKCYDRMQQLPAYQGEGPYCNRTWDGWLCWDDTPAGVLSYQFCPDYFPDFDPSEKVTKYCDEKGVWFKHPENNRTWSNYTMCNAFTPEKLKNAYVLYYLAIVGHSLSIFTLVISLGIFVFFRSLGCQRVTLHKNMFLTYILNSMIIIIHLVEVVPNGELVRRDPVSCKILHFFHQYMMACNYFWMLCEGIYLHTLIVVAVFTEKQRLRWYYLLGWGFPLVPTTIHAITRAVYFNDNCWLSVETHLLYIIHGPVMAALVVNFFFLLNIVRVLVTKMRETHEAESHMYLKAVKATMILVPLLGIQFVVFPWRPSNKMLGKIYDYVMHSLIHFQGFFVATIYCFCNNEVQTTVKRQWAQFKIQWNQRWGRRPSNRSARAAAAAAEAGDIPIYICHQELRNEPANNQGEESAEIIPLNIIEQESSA
Summary of the method: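 COS-7 cells stably expressing human CTR (2000 cells/well) treated with 4-fold serially diluted compounds in HBSS/20 mM HEPES/0.5 mM IBMX/0.1% casein, 30 min at 37° C. cAMP quantified by HTRF (cAMP-d2 plus anti-cAMP cryptate, 1 h RT), fluorescence read at 665 and 615 nm.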

Sequence of human calcitonin receptor (CTR) and RAMP3 (AMY3) (O60896 24-148, one chain of several): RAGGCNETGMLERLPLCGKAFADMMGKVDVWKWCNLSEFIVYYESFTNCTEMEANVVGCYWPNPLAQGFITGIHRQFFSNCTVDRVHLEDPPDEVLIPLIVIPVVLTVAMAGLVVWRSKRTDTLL

| SMILES | EC50 [1] | EC50 [2] |
| --- | --- | --- |
| COc1noc(-c2c(CCc3ccc(F)cc3)nc3c(c2-c2cc4ccnc(N[C@@H]5CCc6c(OC)cccc65)c4s2)C(=O)N2CCC[C@@H]32)n1 [Compound 97, (S)-2-(4-fluorophenethyl)-3-(3-methoxy-1,2,4-oxadiazol-5-yl)-4-(7-(((R)-4-methoxy-2,3-dihydro-1H-inden-1-yl)amino)thieno[2,3-c]pyridin-2-yl)-7,8,9,9a-tetrahydro-5H-pyrido[2,3-a]pyrrolizin-5-one] | 318 nM | 20.7 nM |
| Cc1nnc(-c2c(CCc3ccc(F)cc3)nc3c(c2-c2ccc4c(c2)oc(=O)n4C(C)c2ccc(C#N)c(F)c2)c(=O)n2n3CCC2)o1 (stereo not shown) [Compound 140, 2-fluoro-4-[1-(6-(11-[2-(p-fluorophenyl)ethyl]-10-(5-methyl-1,3,4-oxadiazol-2-yl)-7-oxo-2,6,12-triazatricyclo[6.4.0.0^2,6]dodeca-1(12),8,10-trien-9-yl}-2-oxo-1,3-benzoxazol-3-yl)ethyl]benzonitrile] | 8.8 nM | 0.336 nM |
| COc1cccc2c1CC[C@H]2Nc1nccc2cc(-c3c(-c4nnc(C)o4)c(CCC4CCOCC4)nc4c3S(=O)(=O)CC4C(C)C)sc12 (stereo partly drawn) [Compound 77, 3-isopropyl-7-(7-(((R)-4-methoxy-2,3-dihydro-1H-inden-1-yl)amino)thieno[2,3-c]pyridin-2-yl)-6-(5-methyl-1,3,4-oxadiazol-2-yl)-5-(2-(tetrahydro-2H-pyran-4-yl)ethyl)-2,3-dihydrothieno[3,2-b]pyridine 1,1-dioxide] | 427 nM | 6.4 nM |
| COc1noc(-c2c(CCC3CCOCC3)nc3c(c2-c2cc4ccnc(N[C@@H]5CCc6ncccc65)c4s2)S(=O)(=O)CC3C(C)C)n1 (stereo partly drawn) [Compound 121, N—(R)-4-aza-1-indanyl(2-(3-isopropyl-6-(3-methoxy-1,2,4-oxadiazol-5-yl)-1,1-dioxo-5-[2-(tetrahydro-2H-pyran-4-yl)ethyl]-1λ^6-thia-4-aza-7-indanyl}-1-thia-6-aza-7-indenyl)amine] | 272 nM | 49.2 nM |
| Cc1nnc(-c2c(CCC3CCOCC3)nc3c(c2-c2ccc4nn(Cc5ccc(C#N)c(F)c5)cc4c2)C(=O)N2CCOC[C@@H]32)o1 [Compound 130, 4-[(5-((4aR,9aR)-7-(5-methyl-1,3,4-oxadiazol-2-yl)-9-oxo-6-[2-(tetrahydro-2H-pyran-4-yl)ethyl]-1,2,4,4a-tetrahydro-9H-3-oxa-5,9a-diazafluoren-8-yl}-2H-indazol-2-yl)methyl]-2-fluorobenzonitrile] | 2310 nM | 186 nM |
| Cc1nnc(-c2c(CCC3CCOCC3)nc3c(c2-c2ccc4c(c2)oc(=O)n4Cc2ccc(C#N)c(F)c2)S(=O)(=O)CC3C(C)C)o1 (stereo not shown) [Compound 109, 2-fluoro-4-[(6-(3-isopropyl-6-(5-methyl-1,3,4-oxadiazol-2-yl)-1,1-dioxo-5-[2-(tetrahydro-2H-pyran-4-yl)ethyl]-1λ^6-thia-4-aza-7-indanyl}-2-oxo-1,3-benzoxazol-3-yl)methyl]benzonitrile] | 64.8 nM | 1.51 nM |
| CC(C)C1CS(=O)(=O)c2c1nc(CCC1CCOCC1)c(-c1nnc(CN(C)C)o1)c2-c1cc2ccnc(N[C@@H]3CCc4ncccc43)c2s1 (stereo partly drawn) [Compound 117, 7-(7-[(R)-4-aza-1-indanylamino]-1-thia-6-aza-2-indenyl}-6-(5-[(dimethylamino)methyl]-1,3,4-oxadiazol-2-yl}-3-isopropyl-5-[2-(tetrahydro-2H-pyran-4-yl)ethyl]-1λ^8-thia-4-aza-1,1-indandione] | 257 nM | 9.93 nM |
| Cc1cnc(-c2c(CCC34CCC(CC3)OC4)nc3c(c2-c2ccc4c(c2)OC(C)(C)C(=O)N4Cc2ccc(F)cn2)c(=O)n2n3CCC2)o1 [Compound 159, 9-(4-[(5-fluoro-2-pyridyl)methyl]-2,2-dimethyl-3-oxo-2,4-dihydro-1,4-benzoxazin-7-yl}-10-(5-methyl-1,3-oxazol-2-yl)-11-(2-(2-oxabicyclo[2.2.2]oct-4-yl)ethyl}-2,6,12-triazatricyclo[6.4.0.0^2,6]dodeca-1(12),8,10-trien-7-one] | 70.2 nM | 3.67 nM |
| COc1cccc2c1CC[C@H]2Nc1nccc2cc(-c3c(-c4nnc(C)o4)c(CCC4CCOCC4)nc4c3S(=O)(=O)N3CCC[C@@H]43)sc12 [Compound 84, [(R)-4-methoxy-1-indanyl](2-((2S)-10-(5-methyl-1,3,4-oxadiazol-2-yl)-7,7-dioxo-11-[2-(tetrahydro-2H-pyran-4-yl)ethyl]-7λ^6-thia-6,12-diazatricyclo[6.4.0.0^2,6]dodeca-1(12),8,10-trien-9-yl}-1-thia-6-aza-7-indenyl)amine] | 91.6 nM | 7.4 nM |
| Cc1nnc(-c2c(CCC3CCOCC3)nc3c(c2-c2cn4c(N[C@@H]5CCc6ncccc65)cccc4n2)S(=O)(=O)CC3C(C)C)o1 (stereo partly drawn) [Compound 87, N—(R)-4-aza-1-indanyl(2-(3-isopropyl-6-(5-methyl-1,3,4-oxadiazol-2-yl)-1,1-dioxo-5-[2-(tetrahydro-2H-pyran-4-yl)ethyl]-1λ^6-thia-4-aza-7-indanyl}-1,3a-diaza-4-indenyl)amine] | > 100 nM | 4380 nM |
| Cc1cc(-c2c(CCC3CCOCC3)nc3c(c2-c2cc4ccnc(N[C@@H]5CCc6ncccc65)c4s2)S(=O)(=O)CC3C(C)C)ncn1 (stereo partly drawn) [Compound 92, N—(R)-4-aza-1-indanyl(2-(3-isopropyl-6-(6-methyl-4-pyrimidinyl)-1,1-dioxo-5-[2-(tetrahydro-2H-pyran-4-yl)ethyl]-1λ^6-thia-4-aza-7-indanyl}-1-thia-6-aza-7-indenyl)amine] | 540 nM | 117 nM |
| Cc1nnc(-c2c(CCC3CCCO3)nc3c(c2-c2cc4ncnc(N[C@@H]5CCc6ncccc65)c4s2)S(=O)(=O)CC3C(C)C)o1 (stereo partly drawn) [Compound 100, N—(R)-4-aza-1-indanyl(2-(3-isopropyl-6-(5-methyl-1,3,4-oxadiazol-2-yl)-1,1-dioxo-5-[2-(tetrahydro-2-furyl)ethyl]-1λ^6-thia-4-aza-7-indanyl}-1-thia-4,6-diaza-7-indenyl)amine] | 6180 nM | 184 nM |
| COc1ccnc(-c2c(CCC3CCOCC3)nc3c(c2-c2cc4ccnc(N[C@@H]5CCc6ncccc65)c4s2)S(=O)(=O)CC3C(C)C)n1 (stereo partly drawn) [Compound 146, N—(R)-4-aza-1-indanyl(2-(3-isopropyl-6-(4-methoxy-2-pyrimidinyl)-1,1-dioxo-5-[2-(tetrahydro-2H-pyran-4-yl)ethyl]-1λ^6-thia-4-aza-7-indanyl}-1-thia-6-aza-7-indenyl)amine] | 58.4 nM | 4.06 nM |
| Cc1nnc(-c2c(CCC3C4COCC34)nc3c(c2-c2cc4ccnc(N[C@@H]5CCc6ncccc65)c4s2)S(=O)(=O)CC3C(C)C)o1 (stereo partly drawn) [Compound 115, N—(R)-4-aza-1-indanyl(2-[3-isopropyl-6-(5-methyl-1,3,4-oxadiazol-2-yl)-5-(2-(3-oxabicyclo[3.1.0]hex-6-yl)ethyl}-1,1-dioxo-1λ^6-thia-4-aza-7-indanyl]-1-thia-6-aza-7-indenyl}amine] | 305 nM | 14.5 nM |
| Cc1nnc(-c2c(CCC3CCOCC3)nc3c(c2-c2cc4ccnc(NCc5cnc(C#N)c(F)c5)c4s2)S(=O)(=O)CC3C(C)C)o1 (stereo not shown) [Compound 133, 3-fluoro-5-[(2-(3-isopropyl-6-(5-methyl-1,3,4-oxadiazol-2-yl)-1,1-dioxo-5-[2-(tetrahydro-2H-pyran-4-yl)ethyl]-1λ^6-thia-4-aza-7-indanyl}-1-thia-6-aza-7-indenylamino)methyl]-2-pyridinecarbonitrile] | 243 nM | 42.2 nM |
| Cc1nnc(-c2c(CCC3CCOCC3)nc3c(c2-c2ccc4c(c2)oc(=O)n4Cc2ccc(C#N)cn2)S(=O)(=O)CC3C(C)C)o1 (stereo not shown) [Compound 129, 6-[(6-(3-isopropyl-6-(5-methyl-1,3,4-oxadiazol-2-yl)-1,1-dioxo-5-[2-(tetrahydro-2H-pyran-4-yl)ethyl]-1λ^6-thia-4-aza-7-indanyl}-2-oxo-1,3-benzoxazol-3-yl)methyl]nicotinonitrile] | 211 nM | 4.46 nM |
| Cc1nnc(-c2c(CCC3CCOCC3)nc3c(c2-c2cc4ccnc(NCc5ccc(C#N)c(F)n5)c4s2)S(=O)(=O)CC3C(C)C)o1 (stereo not shown) [Compound 134, 2-fluoro-6-[(2-(3-isopropyl-6-(5-methyl-1,3,4-oxadiazol-2-yl)-1,1-dioxo-5-[2-(tetrahydro-2H-pyran-4-yl)ethyl]-1-2-thia-4-aza-7-indanyl}-1-thia-6-aza-7-indenylamino)methyl]nicotinonitrile] | 1490 nM | 235 nM |

— patent US20250051355A1, “COMPOUNDS, COMPOSITIONS, AND METHODS” (ACONCAGUA BIO, INC., priority 2023, published 2025)
